{
  "source": "patent US9856220B2",
  "about": "(AbbVie Deutschland GmbH & Co. KG, priority 2011, dated 2018)",
  "key": {"[1]": {"assay": "Determination of the microsomal half-life / microsomal clearance, human liver microsomes", "assay_type": "in vitro ADME", "settings": "0.5 μM test substance, 0.25 mg of microsomal protein/ml, pH 7.4, 37° C."}, "[2]": {"assay": "Determination of the microsomal half-life / microsomal clearance, rat liver microsomes", "assay_type": "in vitro ADME", "settings": "0.5 μM test substance, 0.25 mg of microsomal protein/ml, pH 7.4, 37° C."}, "[3]": {"biological_target": "PDE10A (Homo sapiens (Human), UniProt Q9Y233)", "sequence (Q9Y233 whole entry, species assumed)": "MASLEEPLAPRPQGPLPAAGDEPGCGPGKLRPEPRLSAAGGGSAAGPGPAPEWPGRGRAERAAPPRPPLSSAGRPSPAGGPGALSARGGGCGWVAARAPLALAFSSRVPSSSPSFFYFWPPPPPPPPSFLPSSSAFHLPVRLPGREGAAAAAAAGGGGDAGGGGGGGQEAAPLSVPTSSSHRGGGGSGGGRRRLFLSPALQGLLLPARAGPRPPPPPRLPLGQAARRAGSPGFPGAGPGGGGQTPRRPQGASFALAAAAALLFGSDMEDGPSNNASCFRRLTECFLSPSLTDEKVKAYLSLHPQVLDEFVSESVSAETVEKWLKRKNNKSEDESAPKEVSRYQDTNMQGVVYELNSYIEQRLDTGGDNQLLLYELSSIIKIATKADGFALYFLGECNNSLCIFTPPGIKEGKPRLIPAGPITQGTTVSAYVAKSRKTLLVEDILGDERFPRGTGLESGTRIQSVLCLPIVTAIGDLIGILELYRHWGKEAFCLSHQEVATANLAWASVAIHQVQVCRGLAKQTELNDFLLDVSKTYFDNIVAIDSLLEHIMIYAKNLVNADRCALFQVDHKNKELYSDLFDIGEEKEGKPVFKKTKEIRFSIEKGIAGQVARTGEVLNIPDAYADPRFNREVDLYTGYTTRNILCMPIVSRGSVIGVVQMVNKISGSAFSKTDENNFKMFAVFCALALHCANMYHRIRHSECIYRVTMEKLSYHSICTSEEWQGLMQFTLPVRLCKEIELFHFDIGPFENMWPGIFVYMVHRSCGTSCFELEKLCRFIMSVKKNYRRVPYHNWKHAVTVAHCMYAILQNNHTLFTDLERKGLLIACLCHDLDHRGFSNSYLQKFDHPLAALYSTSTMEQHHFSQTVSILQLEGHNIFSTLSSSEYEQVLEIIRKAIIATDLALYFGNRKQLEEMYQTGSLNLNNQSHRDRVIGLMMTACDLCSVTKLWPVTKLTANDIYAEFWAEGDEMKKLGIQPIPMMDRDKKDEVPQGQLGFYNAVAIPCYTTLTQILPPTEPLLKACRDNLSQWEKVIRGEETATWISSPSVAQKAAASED", "assay": "Measurement of PDE activity (recombinant PDE, cAMP HTRF)", "assay_type": "biochemical", "settings": "20 nM cyclic nucleotide substrate, 60 minutes at 29 C", "summary_of_the_method": "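Recombinant human PDE10A in 20 mM Tris-HCl pH 7.5, 10 mM MgCl2, 0.1% BSA with 20 nM cyclic nucleotide substrate; reaction 60 min at 29 C after compound preincubation with enzyme. Residual cAMP detected by HTRF (cAMP-d2/anti-cAMP cryptate); IC50 from inhibitor concentration versus PDE activity.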"}},
  "data": [
    {"compound": "CCC(CC)n1cc(C(=O)NCc2nncs2)c2cc(OC)c(OC)cc2c1=O", "note": "[Example 201, 2-(1-Ethyl-propyl)-6,7-dimethoxy-1-oxo-1,2-dihydro-isoquinoline-4-carboxylic acid ([1,3,4]thiadiazol-2-ylmethyl)-amide]", "values": [
      {"measurement": "Human mCl", "setting": "[1]", "result": "++ (<100 μl min^−1 mg^−1)"},
      {"measurement": "Rat mCl", "setting": "[2]", "result": "++ (<100 μl min^−1 mg^−1)"},
      {"measurement": "IC50", "setting": "[3]", "result": "200 to 500", "unit": "nM"}
    ]},
    {"compound": "COc1cc2c(C(=O)NC3CCc4ccccc43)cn(C(C)C)c(=O)c2cc1OC", "note": "(stereo not drawn) [Example 198, 2-Isopropyl-6,7-dimethoxy-1-oxo-1,2-dihydro-isoquinoline-4-carboxylic acid indan-1-ylamide]", "values": [
      {"measurement": "Human mCl", "setting": "[1]", "result": "+ (100-220 μl min^−1 mg^−1)"},
      {"measurement": "Rat mCl", "setting": "[2]", "result": "++ (<100 μl min^−1 mg^−1)"},
      {"measurement": "IC50", "setting": "[3]", "result": "200 to 500", "unit": "nM"}
    ]},
    {"compound": "CCC(CC)n1cc(C(=O)NC2CCc3ncccc32)c2cc(OC)c(OC)cc2c1=O", "note": "(single isomer, unassigned; (-)) [Example 200, (−)-2-(1-Ethyl-propyl)-6,7-dimethoxy-1-oxo-1,2-dihydro-isoquinoline-4-carboxylic acid (6,7-dihydro-5H-[1]pyrindin-5-yl)-amide]", "values": [
      {"measurement": "Human mCl", "setting": "[1]", "result": "++ (<100 μl min^−1 mg^−1)"},
      {"measurement": "Rat mCl", "setting": "[2]", "result": "++ (<100 μl min^−1 mg^−1)"},
      {"measurement": "IC50", "setting": "[3]", "result": "200 to 500", "unit": "nM"}
    ]},
    {"compound": "CCC(CC)n1cc(C(=O)N[C@H]2CCc3ccccc32)c2cc(OC)c(OC)cc2c1=O", "note": "[Example 192, 2-(1-Ethyl-propyl)-6,7-dimethoxy-1-oxo-1,2-dihydro-isoquinoline-4-carboxylic acid (S)-indan-1-ylamide]", "values": [
      {"measurement": "Human mCl", "setting": "[1]", "result": "∘ (>220 μl min^−1 mg^−1)"},
      {"measurement": "Rat mCl", "setting": "[2]", "result": "+ (100-220 μl min^−1 mg^−1)"},
      {"measurement": "IC50", "setting": "[3]", "result": "< 100", "unit": "nM"}
    ]},
    {"compound": "CCn1cc(C(=O)NCc2cc(C)cs2)c2cc(OC)c(OC)cc2c1=O", "note": "[Example 317, 2-Ethyl-6,7-dimethoxy-N-[(4-methyl-2-thienyl)methyl]-1-oxo-isoquinoline-4-carboxamide]", "values": [
      {"measurement": "Human mCl", "setting": "[1]", "result": "++ (<100 μl min^−1 mg^−1)"},
      {"measurement": "Rat mCl", "setting": "[2]", "result": "+ (100-220 μl min^−1 mg^−1)"},
      {"measurement": "IC50", "setting": "[3]", "result": "100 to 200", "unit": "nM"}
    ]},
    {"compound": "CCn1cc(C(=O)Nc2ccc(C)cc2)c2cc(OC)c(OC)cc2c1=O", "note": "[Example 158, 2-Ethyl-6,7-dimethoxy-1-oxo-N-p-tolyl-1,2-dihydroisoquinoline-4-carboxamide]", "values": [
      {"measurement": "Human mCl", "setting": "[1]", "result": "++ (<100 μl min^−1 mg^−1)"},
      {"measurement": "Rat mCl", "setting": "[2]", "result": "++ (<100 μl min^−1 mg^−1)"},
      {"measurement": "IC50", "setting": "[3]", "result": "100 to 200", "unit": "nM"}
    ]},
    {"compound": "CCC(CC)n1cc(C(=O)N[C@@H](C)c2ccc(F)cc2)c2cc(OC)c(OC)cc2c1=O", "note": "[Example 246, (S)—N-(1-(4-fluorophenyl)ethyl)-6,7-dimethoxy-1-oxo-2-(pentan-3-yl)-1,2-dihydroisoquinoline-4-carboxamide]", "values": [
      {"measurement": "Human mCl", "setting": "[1]", "result": "∘ (>220 μl min^−1 mg^−1)"},
      {"measurement": "Rat mCl", "setting": "[2]", "result": "+ (100-220 μl min^−1 mg^−1)"},
      {"measurement": "IC50", "setting": "[3]", "result": "100 to 200", "unit": "nM"}
    ]},
    {"compound": "CCn1cc(C(=O)NCc2ccc(C3CC3)cc2)c2cc(OC)c(OC)cc2c1=O", "note": "[Example 318, N-[(4-Cyclopropylphenyl)methyl]-2-ethyl-6,7-dimethoxy-1-oxo-isoquinoline-4-carboxamide]", "values": [
      {"measurement": "Human mCl", "setting": "[1]", "result": "++ (<100 μl min^−1 mg^−1)"},
      {"measurement": "Rat mCl", "setting": "[2]", "result": "++ (<100 μl min^−1 mg^−1)"},
      {"measurement": "IC50", "setting": "[3]", "result": "200 to 500", "unit": "nM"}
    ]},
    {"compound": "CCn1cc(C(=O)NCc2ccc(C)cc2)c2cc(OC)c(OC)cc2c1=O", "note": "[Example 161, 2-Ethyl-6,7-dimethoxy-N-(4-methylbenzyl)-1-oxo-1,2-dihydroisoquinoline-4-carboxamide]", "values": [
      {"measurement": "Human mCl", "setting": "[1]", "result": "++ (<100 μl min^−1 mg^−1)"},
      {"measurement": "Rat mCl", "setting": "[2]", "result": "++ (<100 μl min^−1 mg^−1)"},
      {"measurement": "IC50", "setting": "[3]", "result": "< 100", "unit": "nM"}
    ]},
    {"compound": "CCC(CC)n1cc(C(=O)NCc2c(C)noc2C)c2cc(OC)c(OC)cc2c1=O", "note": "[Example 238, N-((3,5-Dimethylisoxazol-4-yl)methyl)-6,7-dimethoxy-1-oxo-2-(pentan-3-yl)-1,2-dihydroisoquinoline-4-carboxamide]", "values": [
      {"measurement": "Human mCl", "setting": "[1]", "result": "++ (<100 μl min^−1 mg^−1)"},
      {"measurement": "Rat mCl", "setting": "[2]", "result": "+ (100-220 μl min^−1 mg^−1)"},
      {"measurement": "IC50", "setting": "[3]", "result": "100 to 200", "unit": "nM"}
    ]},
    {"compound": "CCC(CC)n1cc(C(=O)NCc2cccnc2)c2cc(OC)c(OC)cc2c1=O", "note": "[Example 236, 6,7-Dimethoxy-1-oxo-2-(pentan-3-yl)-N-(pyridin-3-ylmethyl)-1,2-dihydroisoquinoline-4-carboxamide]", "values": [
      {"measurement": "Human mCl", "setting": "[1]", "result": "+ (100-220 μl min^−1 mg^−1)"},
      {"measurement": "Rat mCl", "setting": "[2]", "result": "++ (<100 μl min^−1 mg^−1)"},
      {"measurement": "IC50", "setting": "[3]", "result": "100 to 200", "unit": "nM"}
    ]}
  ]
}
